Experimental data published in patent US20030059788A1, “Genetic markers of toxicity, preparation and uses thereof” (priority 2002, published 2003).
Where two headings read alike, the source gives them in different places. Numbered stars: 1 amine (or outer) side, 2 acyl side, 3 side chain; on linkers, the order of the positions; unused ones are H or OH. Bridge positions count the residues as written; N and C are the ends. Square brackets hold non-standard residues; d marks the D form. Peptide text beside a SMILES is read from it. I, II: the chains in the order shown. Actinocin(9to1) = Cc1c2oc3c(C)ccc(C(=O)[*:1])c3nc-2c(C(=O)[*:2])c(N)c1=O; NMeV = CN[C@H](C(=O)O)C(C)C; Sar = CNCC(=O)O

Experiments:
HepG2 cells [1] = test: cell viability test (MTT), concentration corresponding to an IC80; format: cell-based
Excerpt: (§1) HepG2 cells are then individually treated with different compounds with different levels of toxicity.

HepG2 cells [2] = test: hybridization of probes from treated HepG2 cells on filters with clones from qualitative screening of p53-induced apoptosis (toxicity index); format: cell-based; settings: HepG2 cells treated at IC80 concentration, p53 apoptosis filter
Excerpt: as §1

[3] = HepG2 cells, exposure time 18 h, read-out: Concentration (calculated by cell viability test MTT, corresponds to an IC80)
[4] = HepG2 cells, exposure time 18 h

Row | SMILES | IC80 (HepG2 cells [1]; [3]) | Concentration (calculated by cell viability test MTT, corresponds to an IC80) (HepG2 cells [1]; [4]) | also measured
1 | C[C@H]1C[C@H]2[C@@H]3CCC4=CC(=O)C=C[C@]4(C)[C@@]3(Cl)[C@@H](O)C[C@]2(C)[C@@]1(O)C(=O)CO [Beclomethazone] | 0.05 µM | – | –
2 | O=C(O)Cc1ccccc1Nc1c(Cl)cccc1Cl [Diclofenac] | – | – | splicing events identical to those induced by p53-related toxicity (toxicity index, FIG. 2) (HepG2 cells [2]): generates more splicing events identical to those induced by p53-related toxicity than aspirin
3 | CN[C@@H]1C[C@H]2O[C@@](C)([C@@H]1OC)n1c3ccccc3c3c4c(c5c6ccccc6n2c5c31)C(=O)NC4 [Staurosporine] | 0.05 µM | – | –
4 | N#CC(C#N)=NNc1ccc(OC(F)(F)F)cc1 [FCCP] | – | – | IC80 (HepG2 cells [1]): 5 µM
5 | C[C@@H]1C[C@@H]([C@H](O)CC2CC(=O)NC(=O)C2)C(=O)[C@@H](C)C1 [Cycloheximide] | – | 5 µg/mL | –
6 | CCCCCCCCCCCCCC(=O)O[C@@H]1[C@@H](C)[C@@]2(O)[C@@H](C=C(CO)C[C@]3(O)C(=O)C(C)=C[C@@H]23)[C@@H]2C(C)(C)[C@]12OC(C)=O [PMA] | – | 1 µg/mL | –
7 | O=c1[nH]cc(F)c(=O)[nH]1 [5 FU] | – | – | IC80 (HepG2 cells [1]): 10 µM
8 | Cc1c2oc3c(C)ccc(C(=O)N[C@@H]4C(=O)N[C@H](C(C)C)C(=O)N5CCC[C@H]5C(=O)N(C)CC(=O)N(C)[C@@H](C(C)C)C(=O)O[C@@H]4C)c3nc-2c(C(=O)N[C@@H]2C(=O)N[C@H](C(C)C)C(=O)N3CCC[C@H]3C(=O)N(C)CC(=O)N(C)[C@@H](C(C)C)C(=O)O[C@@H]2C)c(N)c1=O [Actinomycin D] (I: T[dV]P[Sar][NMeV] / II: T[dV]P[Sar][NMeV]; ester I:1-I:C, II:1-II:C; linker I:N-II:N via Actinocin(9to1)) | – | 0.02 µg/mL | –
9 | OO [H2O2] | 100 µM | – | –
10 | CC(C)[C@@H]1NC(=O)[C@H](C)OC(=O)[C@@H](C(C)C)NC(=O)[C@@H](C(C)C)OC(=O)[C@H](C(C)C)NC(=O)[C@H](C)OC(=O)[C@@H](C(C)C)NC(=O)[C@@H](C(C)C)OC(=O)[C@H](C(C)C)NC(=O)[C@H](C)OC(=O)[C@@H](C(C)C)NC(=O)[C@@H](C(C)C)OC1=O [Valinomycin] | 0.015 µM | – | –
